#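 Assay format: 96-well plates, 48-hour exposure. GI50: concentration for 50% inhibition of growth. The concentration for full growth arrest is given as TGI.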
# Legend:
# Assay in all cases: growth of human tumour cells (NCI), 48 h
# [1] = system: CCRF-CEM leukemia
# [2] = system: HCT-116 colon
# [3] = system: HL-60(TB) leukemia
# [4] = system: IGROV1 ovarian
# [5] = system: NCI-H23 lung
# [6] = system: NCI-H460 lung
# [7] = system: SF-295 CNS
# [8] = system: SN12C renal
# [9] = system: SNB-75 CNS
Structure (SMILES),TGI [1],TGI [2],TGI [3],TGI [4],TGI [5],TGI [6],TGI [7],TGI [8],TGI [9],GI50 [1],GI50 [2],GI50 [3],GI50 [4],GI50 [5],GI50 [6],GI50 [7],GI50 [8],GI50 [9]
O=C(COC(=O)c1cccc2c(=O)c3ccccc3[nH]c12)Nc1ccc(Cl)cc1,> 100 µM,> 100 µM,> 100 µM,> 100 µM,64.2 µM,> 100 µM,> 100 µM,> 100 µM,78.6 µM,,,,,,,,,
CCOC(=O)/C(C#N)=C\Sc1ccccc1,> 100 µM,59.8 µM,45.6 µM,23.2 µM,> 100 µM,83.1 µM,48.5 µM,31.7 µM,53.9 µM,,,,,,,,,
COc1c(-c2ccc3c(c2)OCO3)oc2cc(O)cc(O)c2c1=O,> 100 µM,> 100 µM,> 100 µM,> 100 µM,> 100 µM,> 100 µM,> 100 µM,> 100 µM,53.6 µM,,,,,,,,,
Cc1ccc(C)c(NC(=O)C(=O)C2C(=O)N(c3ccccc3)N=C2N)c1 (stereo not drawn),> 100 µM,> 100 µM,> 100 µM,> 100 µM,> 100 µM,> 100 µM,> 100 µM,> 100 µM,> 100 µM,,,,,,,,,
CN(CCCN1C(=O)c2cccc3cc([N+](=O)[O-])cc(c23)C1=O)CCN(C)CCCN1C(=O)c2cccc3cc([N+](=O)[O-])cc(c23)C1=O,> 39.3 µM,> 39.3 µM,> 39.3 µM,> 39.3 µM,> 39.3 µM,> 39.3 µM,> 39.3 µM,> 39.3 µM,> 39.3 µM,,,,,,,,,
C[C@]12CC(C=O)C(=O)C(O)=C1CC[C@@H]1C2CC[C@@]2(C)C1CC[C@]2(C)O (stereo partly drawn),,54.3 µM,41.5 µM,47.5 µM,46.4 µM,87 µM,66.6 µM,42.4 µM,45.9 µM,,,,,,,,,
Cc1cc(Cl)ccc1N=C1NC(=O)C(CC(=O)Nc2cccc(C)c2C)S1 (stereo not drawn),> 100 µM,,,> 100 µM,52.1 µM,> 100 µM,81.2 µM,82.3 µM,48.8 µM,,,,,,,,,
O=C1NC2(CCCCC2)C2CCCCC=C12 (stereo not drawn),> 100 µM,> 100 µM,> 100 µM,> 100 µM,> 100 µM,> 100 µM,> 100 µM,> 100 µM,> 100 µM,,,,,,,,,
O=C(O)/C(Cl)=C(Cl)/C=N/NC(=O)c1cc2ccccc2cc1O,51.7 µM,> 100 µM,> 100 µM,> 100 µM,41.2 µM,> 100 µM,> 100 µM,> 100 µM,> 100 µM,,,,,,,,,
COC(=O)c1ccc(C(=O)OC)c2nc3cc(Cl)ccc3nc12,> 100 µM,> 100 µM,> 100 µM,> 100 µM,> 100 µM,> 100 µM,> 100 µM,> 100 µM,> 100 µM,,,,,,,,,
CCC[CH2][Sn]([CH2]CCC)([O]C(=O)c1cc(F)ccc1F)[O]C(=O)c1cc(F)ccc1F,1.25 µM,2.5 µM,3.09 µM,3.18 µM,2.02 µM,3.56 µM,3.17 µM,2.39 µM,2.49 µM,0.257 µM,1.25 µM,0.506 µM,1.63 µM,0.731 µM,1.85 µM,1.77 µM,1.16 µM,1.13 µM
N#CC(C(=N/O)/C(=N\O)C(C#N)c1ccccc1)c1ccccc1 (stereo not drawn),> 100 µM,> 100 µM,> 100 µM,> 100 µM,> 100 µM,> 100 µM,> 100 µM,> 100 µM,> 100 µM,,,,,,,,,
O=[N+]([O-])c1cccc(S(=O)(=O)N/N=C/c2cc(I)cc([N+](=O)[O-])c2O)c1,47.9 µM,71.1 µM,47 µM,> 100 µM,42.4 µM,> 100 µM,98.7 µM,64.6 µM,67.2 µM,,,,,,,,,
Nn1c(-c2cccc(Cl)c2)nc2ccccc2c1=O,> 100 µM,> 100 µM,> 100 µM,> 100 µM,> 100 µM,> 100 µM,> 100 µM,> 100 µM,> 100 µM,,,,,,,,,
COC(=O)C12C34C=CC5(CCC6(C=CC1(CC3)O6)C52C(=O)OC)O4 (stereo not drawn),> 100 µM,> 100 µM,> 100 µM,> 100 µM,> 100 µM,> 100 µM,> 100 µM,> 100 µM,,,,,,,,,,
CC(=O)[CH-]C(=O)c1ccccc1.CC(=O)[CH-]C(=O)c1ccccc1.CC[C@H](/C=C/C(C)[C@H]1CCC2[C@@H]3CC=C4C[C@@H]([O-])CC[C@]4(C)C3CC[C@@]21C)C(C)C.CC[C@H](/C=C/C(C)[C@H]1CCC2[C@@H]3CC=C4C[C@@H]([O-])CC[C@]4(C)C3CC[C@@]21C)C(C)C.Cl.[Ti+4] (stereo partly drawn),> 25 µM,> 25 µM,16.6 µM,> 25 µM,> 25 µM,> 25 µM,> 25 µM,> 25 µM,,> 25 µM,> 25 µM,6.35 µM,> 25 µM,> 25 µM,> 25 µM,> 25 µM,> 25 µM,
CCOC(=O)C(=O)Nc1c(C)cccc1C(C)(C)C,,> 100 µM,,> 100 µM,> 100 µM,> 100 µM,> 100 µM,> 100 µM,> 100 µM,,,,,,,,,
